# Measurements taken from US10597380B2, “Pyridazinone-based broad spectrum anti-influenza inhibitors” (Hoffmann-La Roche Inc., priority 2017, dated 2020).
# System: Influenza A/WSN/33-Luciferase virus
# Experiment: microbe, parasite or virus in culture
# Format: cell-based
# Conditions: A549, 72 h, luciferase signal three days later, read-out: IC50 antiviral activity (Luciferase reporter assay)
row,Compound,IC50 [nM]
1,"COC(=O)CCCn1cc(Cl)cc(Nc2nn(-c3ccc(OC(F)(F)F)cc3)c(=O)c3c2CCC3)c1=O [Example 37, methyl 4-[5-chloro-2-oxo-3-[[4-oxo-3-[4-(trifluoromethoxy)phenyl]-6,7-dihydro-5H-cyclopenta[d]pyridazin-1-yl]amino]-1-pyridyl]butanoate]",20
2,"COC(=O)CCCn1cccc(Nc2nn(-c3ccc(OC(F)(F)F)cc3)c(=O)c3c2CCC3)c1=O [Example 38, methyl 4-[2-oxo-3-[[4-oxo-3-[4-(trifluoromethoxy)phenyl]-6,7-dihydro-5H-cyclopenta[d]pyridazin-1-yl]amino]-1-pyridyl]butanoate]",23
3,"CCOC(=O)COCCn1cccc(Nc2nn(-c3ccc(OC(F)(F)F)cc3)c(=O)c3c2CCC3)c1=O [Example 39, ethyl 2-[2-[2-oxo-3-[[4-oxo-3-[4-(trifluoromethoxy)phenyl]-6,7-dihydro-5H-cyclopenta[d]pyridazin-1-yl]amino]-1-pyridyl]ethoxy]acetate]",230
4,"O=c1c(Nc2nn(-c3ccc(OC(F)(F)F)cc3)c(=O)c3c2CCC3)cccn1CCn1ccnc1 [Example 40, 1-[[1-(2-imidazol-1-ylethyl)-2-oxo-3-pyridyl]amino]-3-[4-(trifluoromethoxy)phenyl]-6,7-dihydro-5H-cyclopenta[d]pyridazin-4-one]",100
5,"CCOC(=O)C1CN(CCn2cccc(Nc3nn(-c4ccc(OC(F)(F)F)cc4)c(=O)c4c3CCC4)c2=O)CCO1 (centres unmarked) [Example 41, ethyl 4-[2-[2-oxo-3-[[4-oxo-3-[4-(trifluoromethoxy)phenyl]-6,7-dihydro-5H-cyclopenta[d]pyridazin-1-yl]amino]-1-pyridyl]ethyl]morpholine-2-carboxylate]",60
6,"COC1CCN(CCn2cccc(Nc3nn(-c4ccc(OC(F)(F)F)cc4)c(=O)c4c3CCC4)c2=O)C1 (centres unmarked) [Example 42, 1-[[1-[2-(3-methoxypyrrolidin-1-yl)ethyl]-2-oxo-3-pyridyl]amino]-3-[4-(trifluoromethoxy)phenyl]-6,7-dihydro-5H-cyclopenta[d]pyridazin-4-one]",40
7,"CC(C)(C)OC(=O)N(CCn1cccc(Nc2nn(-c3ccc(OC(F)(F)F)cc3)c(=O)c3c2CCC3)c1=O)CC(=O)O [Example 43, 2-[tert-butoxycarbonyl-[2-[2-oxo-3-[[4-oxo-3-[4-(trifluoromethoxy)phenyl]-6,7-dihydro-5H-cyclopenta[d]pyridazin-1-yl]amino]-1-pyridyl]ethyl]amino]acetic acid]",84
8,"O=c1c(Nc2nn(-c3ccc(OC(F)(F)F)cc3)c(=O)c3c2CCC3)cccn1CCCN1CCOCC1 [Example 44, 1-[[1-(3-morpholinopropyl)-2-oxo-3-pyridyl]amino]-3-[4-(trifluoromethoxy)phenyl]-6,7-dihydro-5H-cyclopenta[d]pyridazin-4-one]",28
9,"CC(C)(C)OC(=O)NCCn1cccc(Nc2nn(-c3ccc(OC(F)(F)F)cc3)c(=O)c3c2CCC3)c1=O [Example 45, tert-butyl N-[2-[2-oxo-3-[[4-oxo-3-[4-(trifluoromethoxy)phenyl]-6,7-dihydro-5H-cyclopenta[d]pyridazin-1-yl]amino]-1-pyridyl]ethyl]carbamate]",286
10,"O=c1c(Nc2nn(-c3ccc(OC(F)(F)F)cc3)c(=O)c3c2CCC3)cccn1CCN1CC(O)C1 [Example 46, 1-[[1-[2-(3-hydroxyazetidin-1-yl)ethyl]-2-oxo-3-pyridyl]amino]-3-[4-(trifluoromethoxy)phenyl]-6,7-dihydro-5H-cyclopenta[d]pyridazin-4-one]",33
11,"O=c1c(Nc2nn(-c3ccc(OC(F)(F)F)cc3)c(=O)c3c2CCC3)cncn1CCO [Example 47, 1-[[1-(2-hydroxyethyl)-6-oxo-pyrimidin-5-yl]amino]-3-[4-(trifluoromethoxy)phenyl]-6,7-dihydro-5H-cyclopenta[d]pyridazin-4-one]",71
